Inconclusive results and toxic doses are left out. Rule for the calls: active = survival T/C of 150% or more; inactive = T/C below 125% in these data.
System: BDF1 mice, P388 leukemia ip, median survival T/C
Assay: NCI In Vivo Anticancer Drug Screen. Data for tumor model P388 Leukemia (intraperitoneal) in B6D2F1 (BDF1) mice
Conditions: endpoint: median survival time, higher = longer survival
Summary of the method: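 Each value expresses how treatment altered survival: treated-mouse outcome over vehicle-mouse outcome, both groups bearing the transplanted tumour.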

[1] = dose: 100.0 mg/kg/injection, schedule: Q04DX003 (ip), vehicle: saline with Tween-80
[2] = dose: 200.0 mg/kg/injection, schedule: Q04DX003 (ip), vehicle: saline with Tween-80
[3] = dose: 400.0 mg/kg/injection, schedule: Q04DX003 (ip), vehicle: saline with Tween-80
[4] = dose: 50.0 mg/kg/injection, schedule: Q01DX009 (ip), vehicle: saline with Tween-80
[5] = dose: 100.0 mg/kg/injection, schedule: Q01DX009 (ip), vehicle: saline with Tween-80
[6] = dose: 200.0 mg/kg/injection, schedule: Q01DX009 (ip), vehicle: saline with Tween-80
[7] = dose: 50.0 mg/kg/injection, schedule: Q04DX003 (ip), vehicle: saline with Tween-80
[8] = dose: 25.0 mg/kg/injection, schedule: Q01DX009 (ip), vehicle: saline with Tween-80

Measured: T/C

CC(C)=CC(=O)n1nc2c(c1CC(C)C)C(=O)C(Nc1ccccc1)=CC2=O
inactive: [1] 93 % of control | [2] 90 % of control | [3] 100 % of control

CCCCCCCCCCCCCCCCCCNC(=O)Nc1ccc(C)c(C)c1
inactive: [1] 109 % of control | [2] 109 % of control | [3] 109 % of control

Cc1ccc(C)c(N2CCN(c3ccncc3N)CC2)c1
inactive: dose: 37.5 mg/kg/injection, schedule: Q04DX003 (ip), vehicle: saline with Tween-80 113 % of control | dose: 75.0 mg/kg/injection, schedule: Q04DX003 (ip), vehicle: saline with Tween-80 122 % of control | dose: 150.0 mg/kg/injection, schedule: Q04DX003 (ip), vehicle: saline with Tween-80 118 % of control

CC1(C)OC(CI)C(COS(C)(=O)=O)O1 (centres undefined)
inactive: [4] 100 % of control | [5] 91 % of control | [6] 112 % of control

COc1ccccc1NC(=S)N(C)C
inactive: [4] 100 % of control | [7] 113 % of control | [5] 105 % of control | [1] 109 % of control | [6] 110 % of control | [2] 104 % of control

CCCCn1c(Cl)c(/C=N\Nc2ccccc2[N+](=O)[O-])c2ccccc21
inactive: dose: 200.0 mg/kg/injection, schedule: Q01DX001 (ip), vehicle: Klucel (hydroxypropylcellulose) (HPC) 89 % of control

Cc1cc(=O)[nH]c(N/N=C/c2ccccc2O)n1
inactive: dose: 200.0 mg/kg/injection, schedule: Q01DX010 (ip), vehicle: saline 90 % of control | dose: 300.0 mg/kg/injection, schedule: Q01DX010 (ip), vehicle: saline 95 % of control | dose: 400.0 mg/kg/injection, schedule: Q01DX010 (ip), vehicle: saline 95 % of control | dose: 500.0 mg/kg/injection, schedule: Q01DX010 (ip), vehicle: saline 95 % of control

CCCCCCCCCCCCCCC(F)C(=O)OCC1OC(CO)(OC2OC(CO)C(O)C(O)C2O)C(O)C1O (centres undefined)
inactive: [8] 116 % of control | [4] 108 % of control | [7] 108 % of control | [1] 91 % of control

COc1ccc2c3c(ccc2c1)C(=O)C(C)(C#N)CC3 (centres undefined)
inactive: dose: 50.0 mg/kg/injection, schedule: Q01DX009 (ip), vehicle: Klucel (hydroxypropylcellulose) (HPC) 104 % of control | dose: 100.0 mg/kg/injection, schedule: Q01DX009 (ip), vehicle: Klucel (hydroxypropylcellulose) (HPC) 95 % of control | dose: 100.0 mg/kg/injection, schedule: Q04DX003 (ip), vehicle: other 95 % of control | dose: 200.0 mg/kg/injection, schedule: Q01DX009 (ip), vehicle: Klucel (hydroxypropylcellulose) (HPC) 100 % of control | dose: 200.0 mg/kg/injection, schedule: Q04DX003 (ip), vehicle: other 100 % of control | dose: 400.0 mg/kg/injection, schedule: Q04DX003 (ip), vehicle: other 95 % of control

CCN(CC)CCOC(=O)CSC1C2CC3C(C2)C31 (centres undefined)
inactive: dose: 50.0 mg/kg/injection, schedule: Q01DX009 (ip), vehicle: suspension in saline 106 % of control | dose: 100.0 mg/kg/injection, schedule: Q01DX001 (ip), vehicle: suspension in saline 93 % of control | dose: 100.0 mg/kg/injection, schedule: Q01DX009 (ip), vehicle: suspension in saline 107 % of control | dose: 200.0 mg/kg/injection, schedule: Q01DX001 (ip), vehicle: suspension in saline 101 % of control | dose: 200.0 mg/kg/injection, schedule: Q01DX009 (ip), vehicle: suspension in saline 109 % of control | dose: 400.0 mg/kg/injection, schedule: Q01DX001 (ip), vehicle: suspension in saline 102 % of control | dose: 400.0 mg/kg/injection, schedule: Q01DX009 (ip), vehicle: suspension in saline 111 % of control | dose: 600.0 mg/kg/injection, schedule: Q01DX001 (ip), vehicle: suspension in saline 105 % of control

COC(=O)c1ccc(CBr)cc1
inactive: [8] 103 % of control | dose: 25.0 mg/kg/injection, schedule: Q04DX003 (ip), vehicle: saline with Tween-80 100 % of control | [4] 92 % of control | [7] 91 % of control | [1] 100 % of control

CCCCCCCCC(=O)c1c(OC)oc(/C=N/O)cc1=O
inactive: dose: 1.56 mg/kg/injection, schedule: Q01DX009 (ip), vehicle: Klucel (hydroxypropylcellulose) (HPC) 94 % of control | dose: 3.13 mg/kg/injection, schedule: Q01DX009 (ip), vehicle: Klucel (hydroxypropylcellulose) (HPC) 107 % of control | dose: 6.25 mg/kg/injection, schedule: Q01DX009 (ip), vehicle: Klucel (hydroxypropylcellulose) (HPC) 97 % of control

Source: PubChem BioAssay AID328 (DTP/NCI, 2004)
